Like-named read-outs stand apart in the source and are kept apart here.
Molecular target: T1, human pol κ (Homo sapiens, UniProt Q9UBT6)
T1 construct: A truncated form of pol κ (residues 1–560) with 6 x His-tags attached at the C-terminus; 6xHis (C); made in house; host or cells: E. coli
T1 sequence (Q9UBT6 1-560): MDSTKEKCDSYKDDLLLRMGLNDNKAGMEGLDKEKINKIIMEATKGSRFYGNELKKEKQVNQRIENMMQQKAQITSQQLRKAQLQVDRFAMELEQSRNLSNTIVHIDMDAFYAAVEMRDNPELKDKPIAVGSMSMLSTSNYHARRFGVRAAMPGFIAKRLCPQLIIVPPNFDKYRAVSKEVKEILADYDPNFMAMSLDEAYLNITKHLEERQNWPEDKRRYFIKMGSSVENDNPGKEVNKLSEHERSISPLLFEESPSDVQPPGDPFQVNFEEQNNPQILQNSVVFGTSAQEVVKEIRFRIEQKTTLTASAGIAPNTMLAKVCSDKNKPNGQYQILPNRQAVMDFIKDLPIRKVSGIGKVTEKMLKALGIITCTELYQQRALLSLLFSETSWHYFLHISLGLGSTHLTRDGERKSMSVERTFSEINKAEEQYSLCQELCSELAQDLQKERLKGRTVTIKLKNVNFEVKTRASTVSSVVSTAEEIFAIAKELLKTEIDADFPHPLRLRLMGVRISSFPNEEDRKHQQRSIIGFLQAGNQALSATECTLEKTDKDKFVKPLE
Test: Kinetic analysis of the inhibition of human pol κ
Type: biochemical
Conditions: for Ki: Dixon plot
Source text: Next, to elucidate the mechanism of inhibition, the extent of inhibition as a function of DNA template-primer or dNTP substrate concentrations was studied (Figure 4). In kinetic analysis, poly(dA)/oligo(dT)18 and dTTP were used as the DNA template-primer and dNTP substrate, respectively. […] When activated DNA and four dNTP substrates were used as the DNA template-primer and dNTP substrate, respectively, the inhibition of human pol κ by compound 1 was competitive with the DNA template-primer and non-competitive with the dNTP substrate (data not shown).
Figure 4. Kinetic analysis of the inhibition of human pol κ by compound 1. (A) Human pol κ activity was measured in the absence (closed square) or presence of 4 μM (closed circle), 8 μM (closed triangle) or 12 μM (closed diamond) compound 1 using the indicated concentrations of the DNA template-primer. (B) Human pol κ activity was assayed with the indicated concentrations of the substrate dTTP in the presence of 4 μM (open circle), 8 μM (open triangle) or 12 μM (open diamond) or in the absence (open square) of compound 1. […] Amount of human pol κ in the assay mixture was 0.05 units.
The reaction mixtures for pol α, pol β, plant pols and prokaryotic pols were described previously; those for pol γ, and pols δ and ɛ were as described by Umeda et al. and Ogawa et al., respectively. The reaction mixtures for pols η, ι and κ were the same as for pol α, and the reaction mixture for pol λ was the same as for pol β. For pols, poly(dA)/oligo(dT)18 (A/T = 2/1) and dTTP were used as the DNA template-primer and nucleotide (i.e., dNTP) substrate, respectively. For HIV-1 reverse transcriptase, poly(rA)/oligo(dT)18 (A/T = 2/1) and dTTP were used as the DNA template-primer and nucleotide substrate, respectively. For TdT, oligo(dT)18 (3′-OH) and dTTP were used as the DNA primer and nucleotide substrate, respectively.
The compounds were dissolved in distilled dimethyl sulfoxide (DMSO) at various concentrations and sonicated for 30 sec. Aliquots of 4 μl sonicated samples were mixed with 16 μl of each enzyme (final amount 0.05 units) in 50 mM Tris-HCl (pH7.5) containing 1 mM dithiothreitol, 50% glycerol and 0.1 mM EDTA, and kept at 0 °C for 10 min. These inhibitor-enzyme mixtures (8 μl) were added to 16 μl of each of the enzyme standard reaction mixtures (final concentration of 50 mM Tris-HCl [pH 7.5], 1 mM dithiothreitol, 1 mM MgCl2, 15% glycerol, 10 μM poly(dA)/oligo(dT)18 and 10 μM [^3H]-dTTP), and incubation was carried out at 37 °C for 60 min, except for Taq pol, which was incubated at 74 °C for 60 min. Activity without the inhibitor was considered 100%, and the remaining activity at each concentration of the inhibitor was determined relative to this value. One unit of pol activity was defined as the amount of enzyme that catalyzed the incorporation of 1 nmol dNTP (i.e., dTTP) into synthetic DNA template-primers in 60 min at 37 °C under the normal reaction conditions for each enzyme.

C/C=C/c1occ(C(=O)c2c(OC)cc(OC)cc2C(=O)OC)c(=O)c1OC [compound 1, 3-O-methylfunicone]
increase in Michaelis constant (Km), DNA template-primer (4 μM compound): 295%
increase in Michaelis constant (Km), DNA template-primer (8 μM compound): 467%
increase in Michaelis constant (Km), DNA template-primer (12 μM compound): 812%
Vmax for the dNTP substrate (12 μM compound, decreased from 41.7 without compound): 11.1 pmol/h
Ki (read-out: inhibition constant (Ki) for the DNA template-primer): 1300 nM
Ki (read-out: inhibition constant (Ki) for the dTTP substrate): 4400 nM
mode of inhibition with the DNA template-primer (activated DNA as template-primer, data not shown): competitive
mode of inhibition with the dNTP substrate (dTTP, double reciprocal plots): non-competitive
mode of inhibition with the dNTP substrate (four dNTP substrates, data not shown): non-competitive
mode of inhibition with the DNA template-primer (poly(dA)/oligo(dT)18, double reciprocal plots): competitive
apparent maximum velocity (Vmax), DNA template-primer (unchanged in the presence of 4, 8 and 12 μM compound): 52.6 pmol/h

Reference: PMC2810227, “3-O-Methylfunicone, a Selective Inhibitor of Mammalian Y-Family DNA Polymerases from an Australian Sea Salt Fungal Strain” (Marine Drugs, 2009)
